Data on seven compounds can be found in paper PMC11901561, “Free Radical Scavenging Activity and Inhibition of Enzyme-Catalyzed Oxidation by trans-aryl-Palladium Complexes” (Molecules, 2025).

The nature of experiment [1]: ABTS radical scavenging test (spectrophotometric, 734 nm). The following applies: for Radical scavenging activity against ABTS•+: inhibition curve did not converge, EC50 could not be calculated; for EC50: concentration scavenging 50% of ABTS•+, MeOH, 30 min, mean ± SD. The method, then:
(§1) Radical scavenging capacity, as an indicator of the antioxidant capacity of compounds against 1,1-diphenyl-2-picrylhydrazyl (DPPH) free radicals and 2,2-azinobis (3-ethyl- enzothiazoline-6-sulfonic acid), ABTS•+ radical cations, was determined using a spectrophotometric assay. Antiradical capacity analysis was performed either on pure MeOH for ABTS or the mixture of MeOH/distilled water (90:10 v/v) for DPPH. For both ABTS and DPPH assays, the stock solutions of complexes were prepared in DMSO. Quercetin was used as an antioxidant standard in the DPPH and ABTS•+ scavenging tests. EC50 is defined as the concentration of compound (µM) required to scavenge 50% of ABTS•+ or DPPH radicals. EC50 values were estimated using nonlinear regression. A lower EC50 value indicates higher antiradical activity.
The ABTS assay was based on the method described by Re et al.. For the generation of ABTS•+ radicals, sodium persulfate (2.45 mM) aqueous solution was mixed with ABTS (7 mM) and incubated overnight in the dark to obtain a dark colored solution. The stock solution of ABTS•+ was then diluted by adding pure methanol (100%) to obtain an absorbance of 0.70 (±0.02) at 734 nm at 30 °C. An aliquot of 0.02 mL of tested compound was added to 1.98 mL of ABTS•+, and the decrease in absorbance was monitored at 734 nm after 30 min [80]. During this reaction, the blue green ABTS radical cation is converted back into its colorless neutral form in the presence of the potential antioxidant molecule. A control consisted of 0.02 mL of DMSO in 1.98 mL of ABTS•+ solution. The reducing capacity was determined according to the following formula:% inhibition = (A control − A Sample) × 100/A Control (1)
(§2) Results were expressed as mean values ± standard deviation (SD). All measurements were replicated three times. EC50 values were calculated with GraphPad Prism 6.0 (GraphPad Software, San Diego, CA, USA) under the application of the function “log (inhibitor) versus normalized response-variable slope” after converting the concentrations into their decimal logarithm. The results were analyzed using Student’s test and a two-way analysis of variance (ANOVA), and a multiple comparison of all data was performed using Tukey’s multiple comparisons test. p < 0.0001 was considered significant.

Experiment [2] can be described thus: DPPH radical scavenging test (spectrophotometric, 517 nm). The note with it: for EC50 (g Antioxidant/kg DPPH°): EC50 expressed as weight of antioxidant per kg of DPPH radical; for EC50: concentration scavenging 50% of DPPH, 90% MeOH, 30 min, mean ± SD. The procedure: as §1, with “EC50 is defined as the concentration of compound (µM) required to scavenge 50% of ABTS•+ or DPPH radicals.” left out
The DPPH assay was performed according to the method developed by Brand-Williams et al. slightly modified. A solution of 1 mM DPPH in 90% (v/v) methanol was stirred for 40 min. The absorbance of the solution was adjusted to 0.650 ± 0.020 at 517 nm using fresh 90% (v/v) methanol. Then, 0.02 mL of quercetin taken as a standard or sample was mixed with 1.98 mL of DPPH solution and incubated for 30 min in the dark covered with aluminum foil. When reacting with an antioxidant, the DPPH• radical is converted into DPPH, and its color changes from purple to yellow. The antioxidant effect may be easily evaluated by observing the decrease in visible absorption. The absorbance decrease was monitored at 517 nm after 30 min of incubation with a Hewlett Packard 8453 spectrophotometer. The control consisted of 0.02 mL of DMSO in 1.98 mL of DPPH solution. A similar formula (Equation (1)) was applied to determine the DPPH radical scavenging activity.
as §2
(Loss of DPPH colour is used to gauge radical scavenging.)

Experiment [3] deals with T1, horseradish peroxidase (HRP) (Armoracia rusticana, UniProt P00433).
T1 sequence (P00433 31-338 limits assumed): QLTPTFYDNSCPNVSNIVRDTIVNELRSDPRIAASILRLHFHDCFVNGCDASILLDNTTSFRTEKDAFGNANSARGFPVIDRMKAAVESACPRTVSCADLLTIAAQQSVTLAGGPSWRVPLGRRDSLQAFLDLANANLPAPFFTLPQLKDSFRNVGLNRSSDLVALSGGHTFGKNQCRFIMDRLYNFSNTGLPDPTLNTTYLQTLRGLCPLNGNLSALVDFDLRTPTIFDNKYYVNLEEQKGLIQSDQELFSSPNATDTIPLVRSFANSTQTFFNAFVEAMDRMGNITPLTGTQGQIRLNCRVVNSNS
Put plainly: biochemical. Format: biochemical. The note with it: for EC50: HRP-H2O2/L-012 system, pH 7.5, 37 °C, 30 min, read-out: EC50 chemiluminescence assay; for Effect on chemiluminescence at lowest concentrations: 1, 5, and 10 µM, HRP-H2O2/L-012. The procedure:
To investigate the effect of selected palladium (II)-based complexes on the peroxidase (HRP)-catalyzed oxidation of the chemiluminescent probe (L-012), in the presence of hydrogen peroxide (H2O2), the chemiluminescence technique was used. Briefly, plate-reader-based luminescence measurements were performed in white 96-well plates using a Fluoroskan Ascent FL microplate reader (Thermo Labsystems, Vantaa, Finland), with the temperature set at 37 °C. To 5 µL of a stock solution of HRP (1 mg/mL) in phosphate buffer (pH = 7.5) per well, we successively added 10 µL of L-012 (aqueous solution, 0.84 mmoL) and 2 µL of tested compound in 163 µL of buffer solution. The reaction was triggered by adding 20 µL hydrogen peroxide (0.19 µM) to reach the final volume of 200 µL. The light emission, produced from oxidation of L-012 by HRP/H2O2 system, in the presence or absence of the tested palladium complex, was recorded in kinetic mode for 30 min. Inhibition of the emitted light due to tested complexes was associated with higher activity. The following formula was applied to calculate the inhibiting activity of complexes towards the oxidation of L-012 catalyzed by the HRP/H2O2 system:% inhibition = (L control − L Sample) x 100/L Control
as §2

Experiment [4] in a line: Antiradical efficiency (kinetic study via DPPH assay). The following applies: for AE (antiradical efficiency): AE = 1/EC50.TEC50, DPPH; for Classification of antiradical efficiency: according to Sanchez-Moreno, from AE value; for TEC50: time needed to reach the steady state at the EC50 concentration, DPPH. The method, then:
The reaction between potential antioxidants and the oxidized substrate requires a steady state which will depend on several parameters, such as the reaction time. The time needed to reach the steady state, at the concentration corresponding to EC50, is more and more frequently used and can be defined as TEC50. In brief, TEC50 was determined by plotting the recorded absorbance during the period for the EC50 concentration for the considered antioxidant compound. […] The antiradical efficiency of compounds and their classification are considered according to the work of Sanchez-Moreno [69].

Usually EC50 stands for the concentration at which the effect is half-maximal.

On to `N.N.[Cl][Pt][Cl]` [CisPt, Cisplatin, reference compound], for which the “Radical scavenging activity against ABTS•+” value in experiment [1] is “no antioxidant activity”; in experiment [1] (listed as Cisplatin (CisPt)), “does not show any radical scavenging activity”. For the same compound, the “Radical scavenging activity against DPPH” value in experiment [2] (inhibition curve did not converge, EC50 could not be calculated) is “no antioxidant activity”.
`COc1cc[c]([Pd@SP2]([Cl])([PH](c2ccccc2)(c2ccccc2)c2ccccc2)[PH](c2ccccc2)(c2ccccc2)c2ccccc2)cc1` [Complex 3, Trans-Chloro(4-methoxyphenyl) bis(triphenylphosphine)Palladium]: the results for the EC50 in experiment [1], in experiment [2] and in experiment [3] were 11.1 ± 0.94 µM, 1.9 ± 0.87 µM and 5.8 ± 2.6 µM, respectively. For the same compound, the “EC50 (g Antioxidant/kg DPPH°)” value in experiment [2] turned out to be 73.49 ± 38 g Antioxidant/kg DPPH°. The “AE (antiradical efficiency)” value in experiment [4] was 0.2160 ×10^−3. In addition, the “Classification of antiradical efficiency” value in experiment [4] is given as “Low”.
Take `[Cl][Pd@SP2]([c]1ccccc1)([PH](c1ccccc1)(c1ccccc1)c1ccccc1)[PH](c1ccccc1)(c1ccccc1)c1ccccc1` [Complex 9, Trans-Chloro(phenyl)bis(triphenylphosphine)Palladium]: the response in experiment [1] was half-maximal at 10.3 ± 0.64 µM (EC50). Besides, in experiment [2], the “EC50 (g Antioxidant/kg DPPH°)” value is recorded as 271.97 ± 36 g Antioxidant/kg DPPH° and the half-maximal effective concentration (EC50) was found to be 7.33 ± 0.97 µM. Moreover, in experiment [3], the “Effect on chemiluminescence at lowest concentrations” value is “weak effect” and the concentration giving a half-maximal response (EC50) is 39.2 ± 17 µM. In experiment [4], the “AE (antiradical efficiency)” value is 0.1019 ×10^−3, the “Classification of antiradical efficiency” value was “Low” and the TEC50 was determined as 36 min.
Consider `COc1cc[c]([Pd@SP2]([Br])([PH](c2ccccc2)(c2ccccc2)c2ccccc2)[PH](c2ccccc2)(c2ccccc2)c2ccccc2)cc1` [Complex 2, Trans-Bromo(4-methoxyphenyl)bis(triphenylphosphine)Palladium], for which the 50% effective concentration (EC50) was determined as 7.01 ± 0.98 µM in experiment [1], 7.09 ± 0.94 µM in experiment [2] and 1.48 ± 0.71 µM in experiment [3]. Besides, the “AE (antiradical efficiency)” value in experiment [4] is 0.2155 ×10^−3. Moreover, the “Classification of antiradical efficiency” value in experiment [4] is “Low”. In experiment [4], the TEC50 came out at 16 min.
As to `CC(=O)Oc1cc[c]([Pd@SP2]([Cl])([PH](c2ccccc2)(c2ccccc2)c2ccccc2)[PH](c2ccccc2)(c2ccccc2)c2ccccc2)cc1` [Complex 6, Trans-Chloro(4-acethoxyphenyl)bis(triphenylphosphine)Palladium], in experiment [1], the EC50 worked out at 45.8 ± 0.95 µM. Also, in experiment [2], the “EC50 (g Antioxidant/kg DPPH°)” value amounted to 573.94 ± 40 g Antioxidant/kg DPPH° and a half-maximal effect (EC50) was put at 14.3 ± 0.92 µM. In addition, the EC50 in experiment [3] came out at 6.46 ± 2.28 µM. Further, in experiment [4], the “AE (antiradical efficiency)” value was 0.0328 ×10^−3, the “Classification of antiradical efficiency” value is given as “Low” and the TEC50 is 53 min.
`[Br][Pd@SP2]([c]1ccccc1)([PH](c1ccccc1)(c1ccccc1)c1ccccc1)[PH](c1ccccc1)(c1ccccc1)c1ccccc1` [Complex 8, Trans-Bromo(phenyl)bis(triphenylphosphine)Palladium] registered an EC50 in experiment [1] of 14.3 ± 0.92 µM. In addition, in experiment [2] (100 µM), the “Activity against the DPPH radical” value was “good activity”. For the same compound, in experiment [2], the “EC50 (g Antioxidant/kg DPPH°)” value was determined as 260.96 ± 40 g Antioxidant/kg DPPH° and the midpoint of the response, the EC50, lay at 6.64 ± 0.91 µM. In experiment [3], the “Effect on chemiluminescence at lowest concentrations” value is listed as “weak effect” and the EC50 was 33.3 ± 11.7 µM. Moreover, in experiment [4], the “AE (antiradical efficiency)” value was 0.0955 ×10^−3, the “Classification of antiradical efficiency” value is on record as “Low” and the TEC50 is 40 min.
In turn, `COc1cc[c]([Pd@SP2]([I])([PH](c2ccccc2)(c2ccccc2)c2ccccc2)[PH](c2ccccc2)(c2ccccc2)c2ccccc2)cc1` [Complex 1, Trans-Iodo(4-methoxyphenyl)bis(triphenylphosphine)Palladium] gave an EC50 in experiment [1] of 5.78 ± 0.98 µM. Further, in experiment [2], the “EC50 (g Antioxidant/kg DPPH°)” value is given as 49.31 ± 39 g Antioxidant/kg DPPH° and the midpoint of the response, the EC50, lay at 1.14 ± 0.9 µM. For the same compound, the EC50 in experiment [3] was 3.56 ± 1.87 µM. In experiment [4], the “AE (antiradical efficiency)” value is on record as 1.8437 ×10^−3 and the TEC50 is listed as 11 min.
